Residues, ends and D or L forms follow the SMILES beside them. *: point of attachment. Cbz = O=C(OCc1ccccc1)*
Tests used:
[1] = test system: ATZ in the HTO/Z cell line; test: ATZ levels in HTO/Z cells in the presence of proteasomal inhibitors with or without CBZ; type: cell-based, human; conditions: for levels of ATZ with proteasomal inhibitor alone: no CBZ; for levels of insoluble ATZ in the presence of CBZ: proteasomal inhibitor added for last 6 hours
Method: For experiments in which proteasomal inhibitors were used, MG132 was used at 30 μM and lactacystin at 10 μM for the last 6 hours of the incubation with CBZ or control. Cells that were incubated with MG132 or lactacystin alone served as control to validate that the proteasome was inhibited. For investigation of LC3 conversion, lysosomal inhibitors (E64D and pepstatin A at 20 μg/ml) were added to the medium for the last 4 hours of the incubation with CBZ or control. […] If the number of separate experiments done in the cell line models is not specifically indicated in the text or figure legend, at least 3 separate experiments were done in each case.
(§1) For immunoblot analysis to detect AT, GAPDH or LC3, cells were lysed in 50 mM Tris-HCl, 150 mM NaCl, 1% NP-40, pH 8.0. Protein levels were quantified using the BCA protein assay (Pierce Biotechnology, Rockford, Ill.). 10-50 μg samples were loaded onto 7.5% precast gels. PVDF membranes were blocked in TBS, 0.5% Tween 20 (TBST), 5% milk and then incubated with primary antibody in 5% milk TBST solution. Horseradish peroxidase anti-goat Ig or anti-mouse Ig (Jackson Labs, Bar Harbor, Me.) were used as secondary antibodies in TBST. Blots were visualized with Super Signal West Dura or West Femto from Pierce.

[2] = test system: ATZ in the HTO/Z cell line; test: Steady state levels of ATZ in the HTO/Z cell line (immunoblot of insoluble and soluble fractions); type: cell-based, human; conditions: HTO/Z cells
Excerpt: Cell Lines The human epidermal HeLa cell line with doxycycline-regulated expression of ATZ (HTO/Z) has been described previously (1). HTO/M and HTO/Saar are HeLa cell lines with doxycycline-regulated expression of wild type AT and the AT Saar variant, respectively (1). A murine embryonic fibroblast cell line (MEF) with targeted disruption of Atg5 (2) was engineered for stable expression of ATZ using the previously described pRc/RSV-ATZ expression plasmid (3). A wild type MEF cell line was also engineered for stable expression of ATZ in the same way to serve as control. For experiments with CBZ, the inducible cell lines were cultured in the absence of doxycycline for at least 4 weeks for maximal expression of AT. The cells were then subcultured into separate monolayers in fresh complete growth medium and incubated for 48 hours in the absence or presence of CBZ or rapamycin (RAP). CBZ or RAP were added to the growth medium. The duration of incubation with CBZ was determined to be optimal at 48 hours based on experiments in which the duration was varied from 12 to 72 hours. Doses of CBZ were based on previous studies of its effects in cell lines (5,6). Doses of RAP were based on previous positive effects on autophagic disposal of polyglutamine-repeat proteins (7). After the incubation cells were homogenized and cell homogenates separated into insoluble and soluble fractions according to our previously established technique (8). Samples of 20 μgs each were subjected to immunoblot analysis for AT, BiP and GAPDH.
as §1

ATZ in the liver = test: Hepatic load of ATZ in vivo in PiZ×GFP-LC3 mice (immunoblot, globule histology); design: species or system mouse; conditions: PiZ mice, 2 mg/kg/day intraperitoneal for 2 weeks, FIG. 5C
Excerpt: Transgenic Mice PiZ mice that have been bred into the C57/BL6 background have been described previously (1). For the second and third series of experiments with CBZ we used PiZ mice that were re-derived onto the FVB/N background for a move into a new animal facility. The transgene that was used to generate the PiZ mouse is a genomic fragment of DNA that contains the coding regions of the ATZ gene together with introns and ˜2 kilobases of upstream and downstream flanking regions (10). […] In this perspective it is not an exact phenocopy of the classical form of AT deficiency. In particular it cannot be a model for the loss-of-function mechanisms associated with the classical form of AT deficiency. It is known to have abundant expression of ATZ in hepatocytes and other cell types that express ATZ in humans (11). In the liver there are abundant ATZ-containing intrahepatocytic globules and inflammation that is characteristic of what is seen in the human liver (11,12). […] Taken together, these observations indicate that the PiZ mouse is an appropriate model for the gain-of-toxic function mechanism that is responsible for liver damage in the classical form of AT deficiency. Indeed, the fact that these mice are endowed with endogenous AT function and therein normal levels of AT in the serum and body fluids make them an even more ‘pure’ model for liver damage by gain-of-toxic function. PiZ×GFP-LC3 mice, which generated green fluorescent autophagosomes, have been described previously (2). PiZ×IKKβ.hep were generated by mating of PiZ to IKKβ.hep, which has conditional hepatocyte-specific disruption of NF.B activation (M. Karin, 17). There is increased injury in the liver of these mice as evidenced by the hepatic hydroxyproline content, 153.3% of that in the PiZ mouse (FIG. 7).
Histology Sections of liver tissue were stained with hematoxylin and eosin, PAS, PAS after diastase treatment, TUNEL, PCNA, Ki67 and Sirius Red using standard techniques (18). Previous methods for staining with antibody to smooth muscle actin were used (19). Each was examined by the pathologist (GM) who was completely blinded to the experimental protocol. […] The number of inflammatory nodules, AT-containing globules and autophagosomes were each quantified blindly by counting cells in 6 microscopic fields of 10 different sections for each liver. The number of nuclei, as determined by Hoechst staining, was used to exclude the possibility that different numbers of cells were counted in liver sections from mice treated with CBZ as compared to controls. Hepatic hydroxyproline concentration was determined by a well-established protocol (20,21). […]
For immunoblot on liver, the liver was snap frozen in liquid nitrogen and stored at −80° C. […] Total protein concentration was measured by BCA assay (Pierce). […]

[3] = 48 hours incubation, immunoblot

CC(C)C[C@@H](C=O)NC(=O)[C@H](CC(C)C)NC(=O)[C@H](CC(C)C)NC(=O)OCc1ccccc1 [MG132] (Cbz-Leu-Leu-Leu-aldehyde)
levels of ATZ with proteasomal inhibitor alone [1]: Increased levels | levels of insoluble ATZ in the presence of CBZ [1]: no effect

CO[C@H]1C[C@@H]2CC[C@@H](C)[C@@](O)(O2)C(=O)C(=O)N2CCCC[C@H]2C(=O)O[C@H]([C@H](C)C[C@@H]2CC[C@@H](O)[C@H](OC)C2)CC(=O)[C@H](C)/C=C(\C)[C@@H](O)[C@@H](OC)C(=O)[C@H](C)C[C@H](C)/C=C/C=C/C=C/1C [rapamycin]
ATZ levels (insoluble and soluble fractions) ([2]; 48-hour incubation, FIG. 1B): no effect | hepatic ATZ levels (ATZ in the liver): no effect

CC(=O)N[C@@H](CSC(=O)[C@]1([C@@H](O)C(C)C)NC(=O)[C@H](C)[C@@H]1O)C(=O)O [lactacystin]
levels of ATZ with proteasomal inhibitor alone [1]: Increased levels | reversal of the effect of CBZ on levels of soluble ATZ ([1]; lactacystin 10 μM for last 6 hours of CBZ incubation, mean SD, n=3): 23.1±14.0% | levels of insoluble ATZ in the presence of CBZ [1]: no effect

NC(=O)N1c2ccccc2CC(=O)c2ccccc21 [OBZ, 10,11-dihydro-10-oxo-5H-dibenz[b,f]azepine-5-carboxamide]
steady-state levels of ATZ, insoluble fraction [2, 3]: marked decrease | steady-state levels of ATZ, soluble fraction [2, 3]: minimal effect | lowest dose with evident effect on insoluble ATZ ([2]; 48 hrs, FIG. 9): 0.1 µM

From patent publication US9511074B2, “Methods of treating disorders associated with protein polymerization” (UNIVERSITY OF PITTSBURGH—OF THE COMMONWEALTH SYSTEM OF …, priority 2009, dated 2016)
